# Results: ChEMBL document CHEMBL1156094, “Imidazopyridine-5,6,7,8-tetrahydro-8-quinolinamine derivatives with potent activity against HIV-1” (Bioorg Med Chem Lett, 2009)
# Activity calls are given as the source filed them. The rule behind the calls is not given here.
# Columns and labels:
# [1] = system: Human immunodeficiency virus 1; assay: Antiviral activity against HIV1 3B infected human HOS cells expressing human CXCR4 and CD4 assessed as inhibition of viral infection by luciferase reporter gene assay; type: functional, organism-based; conditions: Human immunodeficiency virus 1, 3B
# [2] = Cytotoxicity against human HOS cells; type: cell-based
# [3] = target: C-X-C chemokine receptor type 4 (Homo sapiens) (UniProt P61073); assay: Antagonist activity at CXCR4; type: functional
# Chain of C-X-C chemokine receptor type 4 (Homo sapiens) (P61073 whole entry): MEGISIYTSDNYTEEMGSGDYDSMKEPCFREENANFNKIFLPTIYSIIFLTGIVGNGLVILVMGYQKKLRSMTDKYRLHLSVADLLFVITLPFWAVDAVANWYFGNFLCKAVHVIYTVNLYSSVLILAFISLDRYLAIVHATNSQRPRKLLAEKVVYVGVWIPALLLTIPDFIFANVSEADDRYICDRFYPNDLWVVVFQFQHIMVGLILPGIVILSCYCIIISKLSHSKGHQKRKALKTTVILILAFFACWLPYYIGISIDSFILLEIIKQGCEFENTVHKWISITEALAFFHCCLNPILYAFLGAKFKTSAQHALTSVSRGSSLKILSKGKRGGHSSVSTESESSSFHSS
# [4] = system: Human immunodeficiency virus 1; assay: Antiviral activity against HIV1 3B infected human HOS cells expressing human CXCR4 and CD4 assessed as inhibition of viral infection in presence of human serum albumin and alpha-acid glycoprotein by luciferase reporter gene assay; type: functional; design: unit not given here
# [5] = Clearance in rat at 1 mg/kg, iv; type: ADME, organism-based; design: dose 1 mg/kg, route intravenous; conditions: in vivo
# [6] = Volume of distribution at steady state in rat at 1 mg/kg, iv; type: ADME, organism-based; design: dose 1 mg/kg, route intravenous; conditions: in vivo, read-out: Vdss
# [7] = Half life in rat at 1 mg/kg, iv; type: ADME, organism-based; design: dose 1 mg/kg, route intravenous; conditions: in vivo
# [8] = Oral bioavailability in rat at 3 mg/kg; type: ADME, organism-based; conditions: in vivo
# [9] = Clearance in Beagle dog at 1 mg/kg, iv; type: ADME, organism-based, Canis lupus familiaris; design: dose 1 mg/kg, route intravenous; conditions: in vivo
# [10] = Clearance in cynomolgus monkey at 1 mg/kg, iv; type: ADME, organism-based, Macaca fascicularis; design: dose 1 mg/kg, route intravenous; conditions: in vivo
# [11] = Volume of distribution at steady state in Beagle dog at 1 mg/kg, iv; type: ADME, organism-based, Canis lupus familiaris; design: dose 1 mg/kg, route intravenous; conditions: in vivo, read-out: Vdss
# [12] = Volume of distribution at steady state in cynomolgus monkey at 1 mg/kg, iv; type: ADME, organism-based, Macaca fascicularis; design: dose 1 mg/kg, route intravenous; conditions: in vivo, read-out: Vdss
# [13] = Half life in Beagle dog at 1 mg/kg, iv; type: ADME, organism-based, Canis lupus familiaris; design: dose 1 mg/kg, route intravenous; conditions: in vivo
# [14] = Half life in cynomolgus monkey at 1 mg/kg, iv; type: ADME, organism-based, Macaca fascicularis; design: dose 1 mg/kg, route intravenous; conditions: in vivo
# [15] = Oral bioavailability in Beagle dog at 3 mg/kg; type: ADME, organism-based, Canis lupus familiaris; conditions: in vivo
# [16] = Oral bioavailability in cynomolgus monkey at 3 mg/kg; type: ADME, organism-based, Macaca fascicularis; conditions: in vivo
IC50 [1] [nM],Activity [3],Structure (SMILES),CC50 [2] [nM],Activity [4],further results
640,Active,CN1CCN(c2cccn3cc(CN(C)[C@H]4CCCc5cccnc54)nc23)CC1,> 5000,–,–
3,Active,CCCN(Cc1cn2c(N3CCN(C)CC3)cccc2n1)[C@H]1CCCc2cccnc21,6700,5,clearance [5]: 8.9 mL/min/kg; Vd [6]: 6.2 L/kg; half-life [7]: 10.7 h; bioavailability [8]: 41%
23,Active,CC(C)CN(Cc1cn2c(N3CCN(C)CC3)cccc2n1)[C@H]1CCCc2cccnc21,20000,–,–
3,Active,CC(C)N1CCN(c2cccc3nc(CN(C)[C@H]4CCCc5cccnc54)cn23)CC1,7100,3.3,clearance [5]: 31 mL/min/kg; Vd [6]: 10.6 L/kg; half-life [7]: 3.9 h; bioavailability [8]: 29%
5,Active,CC(C)N(Cc1cn2c(N3CCN(C)CC3)cccc2n1)[C@H]1CCCc2cccnc21,8900,5,–
84,Active,CN1CCN(c2cccc3nc(CN(C)[C@@H]4CCCc5cccnc54)cn23)CC1,12600,–,–
2,Active,CN1CCN(c2cccc3nc(CN(C)[C@H]4CCCc5cccnc54)cn23)CC1,4500,1.5,clearance [5]: 14 mL/min/kg; clearance [9]: 18 mL/min/kg; clearance [10]: 6 mL/min/kg; Vd [6]: 4.9 L/kg; Vd [11]: 8.5 L/kg; Vd [12]: 3.7 L/kg; half-life [7]: 5.5 h; half-life [13]: 7.6 h; half-life [14]: 10 h; bioavailability [8]: 11%; bioavailability [15]: 13%; bioavailability [16]: 10%
–,Active,CN1CCN(c2cccc3nc(CN(C)[C@H]4CCCc5cccnc54)[nH]c23)CC1,> 5000,80,–
4,Active,CCN1CCN(c2cccc3nc(CN(C)[C@H]4CCCc5cccnc54)cn23)CC1,3900,10,–
2,Active,CCN(Cc1cn2c(N3CCN(C)CC3)cccc2n1)[C@H]1CCCc2cccnc21,8100,1.5,–

# Further lines, the compound ahead of its results:
Structure (SMILES),IC50 [1] [nM],Activity [3],CC50 [2] [nM],Activity [4],further results
CCCCN(Cc1cn2c(N3CCN(C)CC3)cccc2n1)[C@H]1CCCc2cccnc21,3,Active,5300,–,–
CN(Cc1cn2c(N3CCN4CCCC4C3)cccc2n1)[C@H]1CCCc2cccnc21 (some centres undefined),4,Active,3900,–,–
CN(C)[C@H]1CCN(c2cccc3nc(CN(C)[C@H]4CCCc5cccnc54)cn23)C1,8,Active,2100,3,clearance [5]: 9.5 mL/min/kg; Vd [6]: 4.5 L/kg; half-life [7]: 7.9 h; bioavailability [8]: 2%
CN1CCN(c2cccc3nc(CN(Cc4ccccc4)[C@H]4CCCc5cccnc54)cn23)CC1,28,Active,9300,–,–
CN1CCN(c2cccc3nc(CN(CC4CC4)[C@H]4CCCc5cccnc54)cn23)CC1,4,Active,8000,6,clearance [5]: 9.9 mL/min/kg; Vd [6]: 6 L/kg; half-life [7]: 8.8 h; bioavailability [8]: 31%
CN1CCC(N(C)c2cccc3nc(CN(C)[C@H]4CCCc5cccnc54)cn23)C1 (some centres undefined),30,Active,10800,1.3,–
CN(Cc1cn2c(N3CCC(N)CC3)cccc2n1)[C@H]1CCCc2cccnc21,4,Active,6300,–,–
CN1CCN(c2cccc3nc(CN(CC(F)(F)F)C4CCCc5cccnc54)cn23)CC1 (racemic),127,Active,> 5000,–,–
CN(Cc1cn2c(N3CCOCC3)cccc2n1)C1CCCc2cccnc21 (racemic),690,Active,> 10000,–,–
CN1CCC(N(C)c2cccc3nc(CN(C)[C@H]4CCCc5cccnc54)cn23)CC1,49,Active,12500,–,–
CN(C)C1CCN(c2cccc3nc(CN(C)[C@H]4CCCc5cccnc54)cn23)CC1,4,Active,3400,8,clearance [5]: 5.7 mL/min/kg; Vd [6]: 5.1 L/kg; half-life [7]: 10 h; bioavailability [8]: 7%
CN(C)[C@@H]1CCN(c2cccc3nc(CN(C)[C@H]4CCCc5cccnc54)cn23)C1,43,Active,4900,5,–
